Data as given in ChEMBL document CHEMBL1137403, “Discovery of 2-[4-{{2-(2S,5R)-2-cyano-5-ethynyl-1-pyrrolidinyl]-2-oxoethyl]amino]- 4-methyl-1-piperidinyl]-4-pyridinecarboxylic acid (ABT-279): a very potent, selective, effective, and well-tolerated inhibitor of dipeptidyl peptidase-IV, useful for the treatment of diabetes” (J Med Chem, 2006).

Legend:
Dipeptidyl peptidase 8 = Dipeptidyl peptidase 8 (Homo sapiens, UniProt Q6V1X1)
Dipeptidyl peptidase 9 = Dipeptidyl peptidase 9 (Homo sapiens, UniProt Q86TI2)
Sequence of Dipeptidyl peptidase 9 (Q86TI2 whole entry): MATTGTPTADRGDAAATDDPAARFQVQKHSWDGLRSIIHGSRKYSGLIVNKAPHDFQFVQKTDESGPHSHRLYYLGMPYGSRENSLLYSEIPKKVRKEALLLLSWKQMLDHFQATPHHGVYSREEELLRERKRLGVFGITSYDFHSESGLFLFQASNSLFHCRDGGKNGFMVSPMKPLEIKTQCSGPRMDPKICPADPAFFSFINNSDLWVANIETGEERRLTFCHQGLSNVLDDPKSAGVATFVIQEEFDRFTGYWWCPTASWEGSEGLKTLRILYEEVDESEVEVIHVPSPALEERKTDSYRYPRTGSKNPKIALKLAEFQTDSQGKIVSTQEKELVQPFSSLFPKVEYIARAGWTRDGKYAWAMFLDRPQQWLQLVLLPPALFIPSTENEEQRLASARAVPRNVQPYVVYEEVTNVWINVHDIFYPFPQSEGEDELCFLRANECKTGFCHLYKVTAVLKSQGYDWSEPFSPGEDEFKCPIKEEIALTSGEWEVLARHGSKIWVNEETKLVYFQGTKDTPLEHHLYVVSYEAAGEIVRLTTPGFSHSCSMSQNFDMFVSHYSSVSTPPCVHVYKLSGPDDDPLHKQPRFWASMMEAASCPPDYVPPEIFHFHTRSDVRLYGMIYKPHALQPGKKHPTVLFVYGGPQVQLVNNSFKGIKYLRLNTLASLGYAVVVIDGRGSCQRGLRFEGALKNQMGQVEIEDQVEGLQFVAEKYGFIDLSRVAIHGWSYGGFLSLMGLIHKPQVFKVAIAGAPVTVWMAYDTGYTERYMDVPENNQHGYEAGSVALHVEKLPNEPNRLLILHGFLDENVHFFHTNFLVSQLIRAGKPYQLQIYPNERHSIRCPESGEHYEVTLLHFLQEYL

Dipeptidyl peptidase 2 = Dipeptidyl peptidase 2 (Homo sapiens, UniProt Q9UHL4); experiment: Inhibition of DPP7
Prolyl endopeptidase = biological target: T1, Prolyl endopeptidase (Homo sapiens, UniProt P48147); experiment: Inhibition of POP
T1 sequence (P48147 whole entry): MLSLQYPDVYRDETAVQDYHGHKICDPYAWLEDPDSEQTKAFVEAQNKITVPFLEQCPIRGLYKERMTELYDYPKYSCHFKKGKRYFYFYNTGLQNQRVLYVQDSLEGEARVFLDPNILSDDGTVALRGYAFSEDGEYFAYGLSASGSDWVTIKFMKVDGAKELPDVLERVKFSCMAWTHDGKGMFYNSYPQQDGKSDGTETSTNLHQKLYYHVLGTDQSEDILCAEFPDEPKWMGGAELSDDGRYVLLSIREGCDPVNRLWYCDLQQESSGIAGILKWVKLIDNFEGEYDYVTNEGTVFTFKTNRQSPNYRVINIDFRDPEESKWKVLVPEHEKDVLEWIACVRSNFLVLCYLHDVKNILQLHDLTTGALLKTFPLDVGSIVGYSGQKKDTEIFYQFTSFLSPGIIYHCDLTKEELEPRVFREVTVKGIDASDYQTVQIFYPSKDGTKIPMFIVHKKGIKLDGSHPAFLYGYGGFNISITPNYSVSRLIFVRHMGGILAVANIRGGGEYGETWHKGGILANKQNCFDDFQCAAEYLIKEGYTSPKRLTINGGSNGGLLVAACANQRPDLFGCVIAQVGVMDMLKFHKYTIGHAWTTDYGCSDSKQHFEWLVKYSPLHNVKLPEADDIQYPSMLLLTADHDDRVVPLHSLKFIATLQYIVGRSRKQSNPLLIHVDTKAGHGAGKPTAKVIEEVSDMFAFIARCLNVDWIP

Prolyl endopeptidase FAP = biological target: T2, Prolyl endopeptidase FAP (Homo sapiens, UniProt Q12884); experiment: Inhibition of FAPalpha
T2 sequence (Q12884 whole entry): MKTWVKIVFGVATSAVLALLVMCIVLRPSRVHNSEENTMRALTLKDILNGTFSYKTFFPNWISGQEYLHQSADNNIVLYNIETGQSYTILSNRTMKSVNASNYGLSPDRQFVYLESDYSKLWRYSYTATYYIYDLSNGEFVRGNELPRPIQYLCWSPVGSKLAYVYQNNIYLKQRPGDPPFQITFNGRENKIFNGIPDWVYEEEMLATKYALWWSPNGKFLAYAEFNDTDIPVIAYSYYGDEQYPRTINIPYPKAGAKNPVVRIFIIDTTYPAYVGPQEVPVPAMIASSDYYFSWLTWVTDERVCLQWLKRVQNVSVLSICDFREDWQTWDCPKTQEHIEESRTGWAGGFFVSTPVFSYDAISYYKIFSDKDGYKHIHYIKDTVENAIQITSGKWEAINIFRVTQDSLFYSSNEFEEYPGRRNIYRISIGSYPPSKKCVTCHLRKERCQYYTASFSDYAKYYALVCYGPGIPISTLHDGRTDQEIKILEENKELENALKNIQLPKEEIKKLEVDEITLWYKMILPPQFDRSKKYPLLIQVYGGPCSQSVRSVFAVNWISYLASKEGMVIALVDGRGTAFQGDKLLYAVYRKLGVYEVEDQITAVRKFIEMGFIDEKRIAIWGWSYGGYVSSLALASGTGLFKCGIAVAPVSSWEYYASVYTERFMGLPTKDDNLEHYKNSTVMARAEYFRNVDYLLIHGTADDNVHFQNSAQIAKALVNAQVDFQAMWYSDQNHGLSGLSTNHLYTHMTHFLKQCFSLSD

Sequence of Dipeptidyl peptidase 8 (Q6V1X1 whole entry): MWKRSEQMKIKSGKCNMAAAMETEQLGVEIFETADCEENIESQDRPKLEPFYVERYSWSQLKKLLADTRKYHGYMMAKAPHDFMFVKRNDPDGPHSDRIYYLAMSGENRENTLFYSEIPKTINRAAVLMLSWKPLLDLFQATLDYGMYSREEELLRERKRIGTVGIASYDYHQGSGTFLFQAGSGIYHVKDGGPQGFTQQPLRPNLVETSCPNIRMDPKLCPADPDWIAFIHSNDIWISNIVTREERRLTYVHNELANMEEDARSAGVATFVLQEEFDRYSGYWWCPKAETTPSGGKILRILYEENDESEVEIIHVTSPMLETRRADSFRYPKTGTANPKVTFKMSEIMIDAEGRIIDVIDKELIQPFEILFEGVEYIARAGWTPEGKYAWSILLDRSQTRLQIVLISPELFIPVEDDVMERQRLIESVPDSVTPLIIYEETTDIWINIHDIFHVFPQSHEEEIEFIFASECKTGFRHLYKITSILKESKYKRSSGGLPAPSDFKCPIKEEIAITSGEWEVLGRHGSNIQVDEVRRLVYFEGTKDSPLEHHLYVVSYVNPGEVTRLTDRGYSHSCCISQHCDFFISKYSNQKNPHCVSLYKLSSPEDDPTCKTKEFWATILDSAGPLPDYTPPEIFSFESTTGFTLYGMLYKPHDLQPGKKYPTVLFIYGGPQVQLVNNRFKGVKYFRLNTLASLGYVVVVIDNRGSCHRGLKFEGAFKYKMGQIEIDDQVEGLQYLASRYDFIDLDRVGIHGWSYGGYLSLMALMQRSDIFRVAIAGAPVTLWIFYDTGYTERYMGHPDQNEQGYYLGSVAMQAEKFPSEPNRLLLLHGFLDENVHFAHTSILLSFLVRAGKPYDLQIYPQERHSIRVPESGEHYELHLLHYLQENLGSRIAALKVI

Ki (Dipeptidyl peptidase 8): > 30 µM
Ki (Dipeptidyl peptidase 9): > 30 µM
Ki (Dipeptidyl peptidase 2): > 30 µM
Ki (Prolyl endopeptidase): > 30 µM
Ki (Prolyl endopeptidase FAP): > 30 µM
SMILES: C#C[C@H]1CC[C@@H](C#N)N1C(=O)CNC1(C)CCN(c2ccc(C#N)cn2)CC1
